Experimental data: patent US10323022B2, “Pyrrolidinyl urea, pyrrolidinyl thiourea and pyrrolidinyl guanidine compounds as TrkA kinase inhibitors” (Array BioPharma Inc., priority 2011, dated 2019)
Where a name gives a salt, the structure may show the parent alone.

Molecular target: TrkA (Homo sapiens (Human), UniProt P04629)
Test: TrkA Omnia Assay
Assay type: biochemical
Details: averaged IC50; 20 nM enzyme, 500 μM ATP, 10 μM peptide substrate
Description: Trk enzymatic selectivity was assessed using Omnia™ Kinase Assay reagents from Invitrogen Corp. Enzyme (TrkA from Invitrogen Corp.) and test compound (various concentrations) were incubated for 10 minutes at ambient temperature in a 384-well white polypropylene plate (Nunc catalog#267462). Omnia Tyr Peptide #4, as well as ATP, were then added to the plate. Final concentrations were as follows: 20 nM enzyme, 500 μM of ATP, 10 μM peptide substrate. The assay buffer consisted of 25 mM MOPS pH 7.5, 0.005% (v/v) Triton X-100 and 5 mM MgCl2. The production of phosphorylated peptide was monitored continuously for 70 minutes using a Molecular Devices FlexStation II^384 microplate reader (excitation=360 nm; emission=485 nm). Initial rates were calculated from the progress curves. IC50 values were calculated from these rates using either a 4 or 5-parameter logistic curve fit.

Chain of TrkA (P04629 33-796): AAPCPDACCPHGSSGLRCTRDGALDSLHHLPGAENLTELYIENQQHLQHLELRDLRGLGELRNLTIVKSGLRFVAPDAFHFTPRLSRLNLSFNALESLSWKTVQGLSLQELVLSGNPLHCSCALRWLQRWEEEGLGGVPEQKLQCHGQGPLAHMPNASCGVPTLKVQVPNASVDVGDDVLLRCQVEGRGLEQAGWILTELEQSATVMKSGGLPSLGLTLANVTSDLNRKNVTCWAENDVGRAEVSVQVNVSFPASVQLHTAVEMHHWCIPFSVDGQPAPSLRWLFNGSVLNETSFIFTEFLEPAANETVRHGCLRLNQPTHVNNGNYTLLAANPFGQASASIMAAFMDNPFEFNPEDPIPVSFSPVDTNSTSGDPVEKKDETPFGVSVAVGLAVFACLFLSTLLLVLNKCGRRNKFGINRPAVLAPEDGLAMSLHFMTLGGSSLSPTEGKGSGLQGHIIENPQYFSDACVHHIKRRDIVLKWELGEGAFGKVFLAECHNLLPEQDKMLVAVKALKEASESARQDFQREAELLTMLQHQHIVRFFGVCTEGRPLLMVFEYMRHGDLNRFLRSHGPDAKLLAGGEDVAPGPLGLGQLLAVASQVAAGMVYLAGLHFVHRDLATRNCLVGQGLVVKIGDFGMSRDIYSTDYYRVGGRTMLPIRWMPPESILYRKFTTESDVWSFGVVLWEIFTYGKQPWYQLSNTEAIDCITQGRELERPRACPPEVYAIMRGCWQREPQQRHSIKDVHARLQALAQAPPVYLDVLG

IC50 [nM]	Compound
< 100	1-((3S,4R)-4-(3,4- fluorophenyl)-1-(2- methoxyethyl)pyrrolidin-3-yl)- 3-(1-(3-chlorophenyl)-1′,4- dimethyl-1H,1′H-[3,4′- bipyrazol]-5-yl)urea [Example 321]
1000 to 10000	COCCN1C[C@@H](NC(=O)Nc2cc(C(C)(C)C)nn2-c2ccc(C)cc2)[C@H](c2ccccc2)C1 (relative stereo) [Example 2, 1-(3-tert-butyl-1-p-tolyl-1H-pyrazol-5-yl)-3-(trans-1-(2-methoxyethyl)-4-phenylpyrrolidin-3-yl) urea hydrochloride]
< 100	COCCN1C[C@@H](NC(=O)Nc2c3c(nn2-c2ccccc2)CCC3)[C@H](c2ccc(F)c(F)c2)C1 (relative stereo) [Example 3, trans-1-(4-(3,4-difluorophenyl)-1-(2-methoxyethyl)pyrrolidin-3-yl)-3-(2-phenyl-2,4,5,6-tetrahydrocyclopenta[c]pyrazol-3-yl)urea]
< 100	COCCN1C[C@@H](NC(=O)Nc2cc(C(C)C)nn2-c2ccccc2)[C@H](c2ccc(F)c(F)c2)C1 (relative stereo) [Example 4, trans-1-(4-(3,4-difluorophenyl)-1-(2-methoxyethyl)pyrrolidin-3-yl)-3-(3-isopropyl-1-phenyl-1H-pyrazol-5-yl) urea]
1000 to 10000	COCCN1C[C@@H](NC(=O)Nc2cc(C(C)(C)C)nn2C)[C@H](c2ccccc2)C1 (relative stereo) [Example 5, 1-(3-tert-butyl-1-methyl-1H-pyrazol-5-yl)-3-(trans-1-(2-methoxyethyl)-4-phenylpyrrolidin-3-yl) urea]
1000 to 10000	COCCN1C[C@@H](NC(=O)Nc2cc(C)nn2C)[C@H](c2ccccc2)C1 (relative stereo) [Example 6, 1-(1,3-dimethyl-1H-pyrazol-5-yl)-3-(trans-1-(2-methoxyethyl)-4-phenylpyrrolidin-3-yl) urea]
1000 to 10000	COCCN1C[C@@H](NC(=O)Nc2cc(C(C)(C)C)nn2-c2cccnc2)[C@H](c2ccccc2)C1 (relative stereo) [Example 7, 1-(3-tert-butyl-1-(pyridin-3-yl)-1H-pyrazol-5-yl)-3-(trans-1-(2-methoxyethyl)-4-phenylpyrrolidin-3-yl) urea]
100 to 1000	COCCN1C[C@@H](NC(=O)Nc2cc(C(C)(C)C)nn2-c2ccc(F)cc2)[C@H](c2ccccc2)C1 (relative stereo) [Example 8, 1-(3-tert-butyl-1-(4-fluorophenyl)-1H-pyrazol-5-yl)-3-(trans-1-(2-methoxyethyl)-4-phenyl-pyrrolidin-3-yl)urea]
< 100	COCCN1C[C@@H](NC(=O)Nc2cc(C3CC3)nn2-c2ccccc2)[C@H](c2ccccc2)C1 (relative stereo) [Example 9, 1-(3-cyclopropyl-1-phenyl-1H-pyrazol-5-yl)-3-(trans-1-(2-methoxyethyl)-4-phenylpyrrolidin-3-yl)urea]
< 100	COCCN1C[C@@H](NC(=O)Nc2cc(-c3ccccc3)nn2-c2ccccc2)[C@H](c2ccccc2)C1 (relative stereo) [Example 10, 1-(1,3-diphenyl-1H-pyrazol-5-yl)-3-(trans-1-(2-methoxyethyl)-4-phenylpyrrolidin-3-yl)urea]
< 100	COCCN1C[C@@H](NC(=O)Nc2cc(C)nn2-c2ccccc2)[C@H](c2ccccc2)C1 (relative stereo) [Example 11, 1-(trans-1-(2-methoxyethyl)-4-phenylpyrrolidin-3-yl)-3-(3-methyl-1-phenyl-1H-pyrazol-5-yl)urea]
< 100	COCCN1C[C@@H](NC(=O)Nc2cc(C(C)C)nn2-c2ccccc2)[C@H](c2ccccc2)C1 (relative stereo) [Example 12, 1-(3-isopropyl-1-phenyl-1H-pyrazol-5-yl)-3-(trans-1-(2-methoxyethyl)-4-phenylpyrrolidin-3-yl)urea]
< 100	COCCN1C[C@@H](NC(=O)Nc2cc(-c3ccccc3)nn2C)[C@H](c2ccccc2)C1 (relative stereo) [Example 13, 1-(trans-1-(2-methoxyethyl)-4-phenylpyrrolidin-3-yl)-3-(1-methyl-3-phenyl-1H-pyrazol-5-yl)urea]
< 100	COCCN1C[C@@H](NC(=O)Nc2c3c(nn2-c2ccccc2)CCC3)[C@H](c2ccccc2)C1 (relative stereo) [Example 14, 1-(trans-1-(2-methoxyethyl)-4-phenylpyrrolidin-3-yl)-3-(2-phenyl-2,4,5,6-tetrahydrocyclopenta[c]pyrazol-3-yl)urea]
100 to 1000	COCCN1C[C@@H](NC(=O)Nc2ccnn2-c2ccccc2)[C@H](c2ccccc2)C1 (relative stereo) [Example 15, 1-(trans-1-(2-methoxyethyl)-4-phenylpyrrolidin-3-yl)-3-(1-phenyl-1H-pyrazol-5-yl)urea]
1000 to 10000	COCCN1C[C@@H](NC(=O)Nc2cc(C(C)(C)C)nn2-c2ccccc2F)[C@H](c2ccccc2)C1 (relative stereo) [Example 16, 1-(3-tert-butyl-1-(2-fluorophenyl)-1H-pyrazol-5-yl)-3-(trans-1-(2-methoxyethyl)-4-phenylpyrrolidin-3-yl)urea]
100 to 1000	COCCN1C[C@@H](NC(=O)Nc2cc(C(C)(C)C)nn2-c2cccc(F)c2)[C@H](c2ccccc2)C1 (relative stereo) [Example 17, 1-(3-tert-butyl-1-(3-fluorophenyl)-1H-pyrazol-5-yl)-3-(trans-1-(2-methoxyethyl)-4-phenylpyrrolidin-3-yl)urea]
< 100	COCCN1C[C@@H](NC(=O)Nc2c(C)c(C)nn2-c2ccccc2)[C@H](c2ccccc2)C1 (relative stereo) [Example 18, 1-(3,4-dimethyl-1-phenyl-1H-pyrazol-5-yl)-3-(trans-1-(2-methoxyethyl)-4-phenylpyrrolidin-3-yl)urea]
100 to 1000	COCCN1C[C@@H](NC(=O)Nc2c3c(nn2-c2cccnc2)CCC3)[C@H](c2ccccc2)C1 (relative stereo) [Example 19, 1-(trans-1-(2-methoxyethyl)-4-phenylpyrrolidin-3-yl)-3-(2-(pyridin-3-yl)-2,4,5,6-tetrahydrocyclopenta[c]pyrazol-3-yl)urea]
1000 to 10000	COCCN1C[C@@H](NC(=O)Nc2ccnn2C)[C@H](c2ccccc2)C1 (relative stereo) [Example 20, 1-(trans-1-(2-methoxyethyl)-4-phenylpyrrolidin-3-yl)-3-(1-methyl-1H-pyrazol-5-yl)urea]
< 100	COCCN1C[C@@H](NC(=S)Nc2c3c(nn2-c2ccccc2)CCC3)[C@H](c2ccccc2)C1 (relative stereo) [Example 21, 1-(trans-1-(2-methoxyethyl)-4-phenylpyrrolidin-3-yl)-3-(2-phenyl-2,4,5,6-tetrahydrocyclopenta[c]pyrazol-3-yl)thiourea]
< 100	COCCN1C[C@@H](NC(=O)Nc2c3c(nn2-c2cccc(F)c2)CCC3)[C@H](c2ccccc2)C1 (relative stereo) [Example 22, 1-(2-(3-fluorophenyl)-2,4,5,6-tetrahydrocyclopenta[c]pyrazol-3-yl)-3-(trans-1-(2-methoxyethyl)-4-phenylpyrrolidin-3-yl)urea]
< 100	COCCN1C[C@@H](NC(=O)Nc2c3c(nn2-c2ccc(F)cc2)CCC3)[C@H](c2ccccc2)C1 (relative stereo) [Example 23, 1-(2-(4-fluorophenyl)-2,4,5,6-tetrahydrocyclopenta[c]pyrazol-3-yl)-3-(trans-1-(2-methoxyethyl)-4-phenylpyrrolidin-3-yl)urea]
